Literature values as cited in patent US20240315972A1, “PROTEIN CONTAINING BIO-ACTIVE COMPOSITIONS COMPRISING CELLULOSE MICROPARTICLE CARRIERS” (priority 2021, published 2024).

Experiments:
[1] = system: large native proteins; details: versus its mesophilic analogue
[2] = system: herpes simplex virus type 1 (HSV-1); details: in vitro
[3] = system: respiratory syncytial virus (RSV); details: in vitro
[4] = system: interferon (IFN) signaling; details: 5 BAEE U/mL (4.5 μg/mL porcine trypsin)

Trypsin
Effectiveness in degrading large native proteins relative to mesophilic analogue [1]: 3-12 times | Efficacy against HSV-1 [2]: high efficacy | Efficacy against RSV [3]: high efficacy | Effect on interferon (IFN) signaling [4]: strongly inhibited
